Source: patent publication US7252953B2, “Method of detecting and preventing Alzheimer's disease, particularly at prodromal and early stages” (United States of America Department of Veterans Affairs, priority 2002, dated 2007)
Entries after “also recorded” stand apart in the source; their conditions may differ.

What was measured:
p44/42 MAPK = p44/42 MAPK phosphorylation in microglial cells (WB); assay type: cell-based, murine
Protocol: (§1) Primary microglial cultures were prepared from neonatal mouse (C57BL6) brains as previously described (Reference 29) and maintained in Delbecco's modified Eagle's medium with F-12 nutrient mixture (DMEM/F12) containing 10% fetal bovine sera (FBS) and antibiotics. N9 clonal murine microglial cell cultures were maintained in Iscoves modified Delbecco's medium (IMDM) containing 5% heat-inactivated FBS, 2 mM L-glutamine, 50 μM 2-mercaptoethanol and antibiotics. Treatment of both primary and N9 microglial cells were performed under serum-free conditions. Freshly solublized Aβ (BioSource, Camarillo, Calif.) peptides were prepared and characterized as previously described (References 30 and 44) and were used in all in vitro experiments. Unless specified, cells were always pretreated with sAβ for 5 min and then followed by challenge with α-thrombin (100 nM or as indicated), glutamate (2 mM) or LPS (5 ng/ml).
(§2) Cultured cells were lysed in pre-chilled 2×IP buffer I (Tris, 20 mM, pH 7.4; NaCl, 300 mM; EDTA, 2 mM; 2 mM EGTA, pH 8.0; 0.4 mM sodium ortho-vanadate, 2% Triton X-100; 1% NP-40; 0.4 mM PMSF) supplemented both with phosphatase and protease inhibitor cocktails. After centrifugation, the supernatants were collected and total protein concentrations were determined by the bicinchoninic acid assay (BCA). Equal amounts (250 μg) of cell lysates from each group were mixed with 20 μl (˜5 μg) of either PAR1 or PAR4 antibodies, and brought to a total volume of 1 ml in 1×IP buffer. Following a 1 hour incubation at 4° C., appropriate secondary antibody-agarose conjugates were added followed by incubation (30 min with agitation), centrifugation and sufficient washes. The pellets were resuspended in 30 μl of electrophoresis sample buffer and boiled for 5 min. The supernatants were directly used for polyacrylamide sodium dodecyl sulfate gel electrophoresis (SDS-PAGE) and WB analysis. To prepare subcellular fractions of brain samples, we homogenized fresh or fresh-frozen tissues in Tris buffered saline solution (Tris, 10 mM, pH 7.4; NaCl, 150 mM; EDTA, 1 mM; 1 mM EGTA, pH 8.0; 0.2 mM sodium ortho-vanadate) supplemented with protease inhibitor cocktails. After centrifugation (12,000 g at 4° C. for 15 min), the supernatants were collected as cytosolic fractions. The pellets were resuspended in 1×IP buffer containing protease inhibitor cocktail. Following brief sonication and centrifugation (12,000 g at 4° C. for 15 min), the supernatants were collected as membrane fractions. Both antibodies to GRK2 and GRK5 (Santa Cruz) were diluted 1:500 for WB, other routine procedures, WB for total and phospho-p44/42 MAPK, and semi-quantitative analysis of protein band density were performed as previously described (Reference 29).
(§3) In previous studies, we found thrombin signaling via PARs in microglial cells involving [Ca^2+]i increase and transient activation of both p38 and p44/42 mitogen-activated protein kinases (MAPKs) (Reference 29). To understand potential consequences of GRK dysfunction induced by sAβ, for these studies we also assessed changes in thrombin signaling in sAβ-pretreated microglial cells.
(§4) FIG. 5A, N9 microglial cells were pre-treated with 500 nM sAβ1-42 (arrow “1”) followed by 100 nM thrombin treatment (arrow “2”). Changes in [Ca^2+]i were measured as previously described (Reference 29) from three separate experiments. […] For both FIGS. 5B and 5C, lane M=Marker, 1=Control (0 min), 2=Control (25 min), 3=Aβ1-42 (25 min), 4=Thrombin (20 min), 5=Aβ1-42+thrombin (20 min post-Aβ), 6=Control (24 h), 7=Aβ1-42 (24 h), 8=Thrombin (24 h) and 9=Aβ1-42+thrombin (24 h post-Aβ). “P” and “T” indicate phosphorylated and total p38 or p44/42 MAPKs, respectively.

TNF-α [1] = assay: TNF-α release in primary mouse brain microglial cultures; assay type: cell-based
Protocol: as §1
(§5) TNF-α production in microglial culture media was measured and standardized as previously described (Reference 29).
(§6) Given our results that sAβ disrupts GRK function and inhibits GPCR desensitization in microglia, we next investigated whether such signaling dysregulation might lead to cellular functional changes in microglia. Both primary and N9 clonal murine microglial cultures were used and TNF-α secretion in culture media was measured as an outcome. […] Moreover, the potentiation effect of sAβ on thrombin and glutamate-induced microglial activation was dose-dependent, with a minimal effective concentration (ECmin) of 20 nM and a maximal EC (ECmax) of 500 nM. Furthermore, the enhancement effect was not observed if sAβ was given after (10 min) thrombin or glutamate treatments. […] Together with the evidence that sAβ inhibits GRK-GPCR interactions and causes prolongation of GPCR signaling, we conclude that sAβ, by disrupting GRK function, alters microglial reactivity to specific GPCR activators.
FIG. 6A, pretreatment with sAβ1-42 potentiated (p<0.01) TNF-α release induced by increasing doses of thrombin (Thr) as indicated from primary mouse brain microglial cultures. n=4. […]

[2] = test system: fibrillar actin (F-actin); assay: Phalloidin staining of F-actin in microglial cells; assay type: cell-based, murine
Protocol: Microglial cells were seeded onto poly-L-lysine-coated 8-chamber slides at a density of 1×10^4/well. After various treatments, cells were immediately fixed with pre-chilled (4° C.) 5% acetic acid in methanol for 45 min at 4° C., followed by washing with PBS. The fixed cells were blocked and double-stained with phalloidin-FITC (1:1,000) and anti-GRK5 (1:500) or GRK2 (1:500). Secondary antibody-Cy3 conjugates (1:500) staining, washing, mounting and confocal microscopic visualization were performed routinely as previously described (Reference 29).
Microglial-mediated inflammation is an important pathological component of AD (Reference 28). […] Thrombin, a serine protease is known to activate protease-activated GPCRs, (PARs) such as PAR1 (Reference 29) and PAR4 in microglia. The sAβ preparation used in this study has been previously characterized as composed principally of conformational intermediates by CD-spectrum (Reference 30) and a mixture of monomeric and oligomeric Aβ by Western blotting.

PARs-GRKs binding = assay: Inhibition of GRK-PAR binding by sAβ-pretreatment in microglial cells (IP and WB, all examined PARs and GRKs); assay type: cell-based, murine; details: sAβ1-42 500 nM pretreatment 5 min, then 100 nM thrombin 30 seconds
Protocol: as §1, with “Unless specified, cells were always pretreated with sAβ for 5 min and then followed by challenge with α-thrombin (100 nM or as indicated), glutamate (2 mM) or LPS (5 ng/ml).” left out
Cultured cells were lysed in pre-chilled 2×IP buffer I (Tris, 20 mM, pH 7.4; NaCl, 300 mM; EDTA, 2 mM; 2 mM EGTA, pH 8.0; 0.4 mM sodium ortho-vanadate, 2% Triton X-100; 1% NP-40; 0.4 mM PMSF) supplemented both with phosphatase and protease inhibitor cocktails. After centrifugation, the supernatants were collected and total protein concentrations were determined by the bicinchoninic acid assay (BCA). […] Both antibodies to GRK2 and GRK5 (Santa Cruz) were diluted 1:500 for WB, other routine procedures, WB for total and phospho-p44/42 MAPK, and semi-quantitative analysis of protein band density were performed as previously described (Reference 29). […]

[Ca^2+]i = Ca2+ imaging (Fluo-4) in microglial cells; assay type: cell-based, murine; details: sAβ-pretreated cells (500 nM sAβ1-42), then 100 nM thrombin
Protocol: as §1
We measured [Ca^2+]i in microglial cells using Fluo-4 (2 μM) with the aid of a Nikon BioRadiance triple laser scanning confocal microscope. Image collection, quantification and data analysis were performed as previously described (Reference 29).
as §3, §4

TNF-α [3] = assay: TNF-α release in N9 clonal murine microglial cells; assay type: cell-based
Protocol: as §1, §5, §6
FIG. 6A, pretreatment with sAβ1-42 potentiated (p<0.01) TNF-α release induced by increasing doses of thrombin (Thr) as indicated from primary mouse brain microglial cultures. n=4. […] The ECmin and ECmax for sAβ's potentiation are approximately 20 nM and 500 nM, respectively. n=6.

p38 MAPK = p38 MAPK phosphorylation in microglial cells (WB); assay type: cell-based, murine
Protocol: as §1, §2, §3, §4

[4] = sAβ pretreatment (5 min) followed by thrombin, within 20 min post-Aβ treatment
[5] = sAβ-pretreatment followed by thrombin, 24 h
[6] = substance alone, within 20 min post-Aβ treatment
[7] = 5 min pretreatment, N9 cells, FIG. 6B

sAβ: Soluble β-amyloid, chain length not stated at the place; sAβ1-42 (500 nM) in Examples 3-6
p44/42 MAPK phosphorylation (p44/42 MAPK; [4]): increased phosphorylation | p44/42 MAPK phosphorylation (p44/42 MAPK; [5]): remained elevated; also recorded: persistent phosphorylation | p44/42 MAPK phosphorylation (p44/42 MAPK; substance alone, 24 h): returned to basal levels | p44/42 MAPK phosphorylation (p44/42 MAPK; [6]): increased phosphorylation | effect of sAβ pretreatment on thrombin-induced TNF-α release (TNF-α [1]; 5 min pretreatment, FIG. 6A): significantly potentiated | TNF-α release induced by sAβ alone (TNF-α [1]; nM concentrations): insufficient to induce significant TNF-α release | formation of fibrillar actin (F-actin) [2]: caused rapid formation of fibrillar actin (F-actin) | binding of all examined PARs to GRKs after thrombin in sAβ-pretreated cells (PARs-GRKs binding): essentially abolished; also recorded: almost completely abolished | [Ca^2+]i reached by the subsequent slow climb, without decrease ([Ca^2+]i): greater than 450 nM | effect of sAβ pretreatment on LPS-induced TNF-α release (TNF-α [3]; [7]): not | effect of sAβ pretreatment on glutamate-induced TNF-α release (TNF-α [3]; [7]): significantly potentiated | effect of sAβ pretreatment on thrombin-induced TNF-α release (TNF-α [3]; [7]): significantly potentiated | TNF-α release induced by sAβ alone (TNF-α [3]; nM concentrations, N9 clonal microglial cultures): insufficient to induce significant TNF-α release; also recorded: not significant | maximal EC (ECmax) of sAβ's potentiation (TNF-α [3]; potentiation of thrombin- and glutamate-induced TNF-α release): 500 nM | enhancement of TNF-α release when sAβ is given after thrombin or glutamate (post-treatment) (TNF-α [3]; sAβ given 10 min after thrombin or glutamate): not observed | p38 MAPK phosphorylation (p38 MAPK; [4]): increased phosphorylation | p38 MAPK phosphorylation (p38 MAPK; [5]): remained elevated; also recorded: persistent phosphorylation | p38 MAPK phosphorylation (p38 MAPK; substance alone, 24 h): returned to basal levels | p38 MAPK phosphorylation (p38 MAPK; [6]): increased phosphorylation
